The record followed here is patent US11040981B2, “Pyrrolotriazine compounds and methods of inhibiting TAM kinases” (Syros Pharmaceuticals, Inc., priority 2017, dated 2021).

Structures are written as SMILES. Some results are limits rather than exact numbers.

In one assay the target is T1, AXL (Homo sapiens, UniProt P30530).
T1 sequence (P30530 26-894): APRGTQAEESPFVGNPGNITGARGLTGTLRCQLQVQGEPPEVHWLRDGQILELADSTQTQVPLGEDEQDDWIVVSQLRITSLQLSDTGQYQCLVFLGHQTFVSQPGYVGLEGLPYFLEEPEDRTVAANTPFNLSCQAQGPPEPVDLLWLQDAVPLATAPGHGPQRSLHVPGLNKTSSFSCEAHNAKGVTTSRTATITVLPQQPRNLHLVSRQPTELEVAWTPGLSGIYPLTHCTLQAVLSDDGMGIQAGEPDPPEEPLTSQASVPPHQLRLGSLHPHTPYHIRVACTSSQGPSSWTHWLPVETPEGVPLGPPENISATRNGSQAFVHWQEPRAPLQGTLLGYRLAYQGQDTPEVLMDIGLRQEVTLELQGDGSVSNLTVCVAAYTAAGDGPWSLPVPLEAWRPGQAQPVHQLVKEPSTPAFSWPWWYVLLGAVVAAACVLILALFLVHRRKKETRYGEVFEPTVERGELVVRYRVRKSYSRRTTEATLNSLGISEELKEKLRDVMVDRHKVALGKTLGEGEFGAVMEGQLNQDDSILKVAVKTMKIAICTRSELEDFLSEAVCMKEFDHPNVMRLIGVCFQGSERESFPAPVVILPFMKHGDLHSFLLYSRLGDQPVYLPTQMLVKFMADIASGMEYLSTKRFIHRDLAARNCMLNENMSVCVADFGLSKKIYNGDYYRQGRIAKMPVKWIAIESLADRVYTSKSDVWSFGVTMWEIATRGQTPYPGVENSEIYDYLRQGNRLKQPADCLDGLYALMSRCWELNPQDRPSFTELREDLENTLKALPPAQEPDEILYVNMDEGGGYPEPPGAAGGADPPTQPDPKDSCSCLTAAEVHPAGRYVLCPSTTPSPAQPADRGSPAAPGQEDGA
Briefly: TR-FRET kinase activity assay, AXL. The conditions noted are these: ATP at Km, 60 minutes. Type of assay: biochemical. Summed up:
(§1)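 Enzyme + labelled peptide + cpd premixed; ATP at per-enzyme Km starts rxn. 60 min RT, HEPES pH 7.5/MgCl2/EGTA/Brij 35/DTT buffer. Stop 12.5 mM EDTA, Eu phospho-Ab 30 min dark, TR-FRET read → IC50.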

The next assay has as its target T2, MERTK (Homo sapiens, UniProt Q12866).
T2 sequence (Q12866 21-999): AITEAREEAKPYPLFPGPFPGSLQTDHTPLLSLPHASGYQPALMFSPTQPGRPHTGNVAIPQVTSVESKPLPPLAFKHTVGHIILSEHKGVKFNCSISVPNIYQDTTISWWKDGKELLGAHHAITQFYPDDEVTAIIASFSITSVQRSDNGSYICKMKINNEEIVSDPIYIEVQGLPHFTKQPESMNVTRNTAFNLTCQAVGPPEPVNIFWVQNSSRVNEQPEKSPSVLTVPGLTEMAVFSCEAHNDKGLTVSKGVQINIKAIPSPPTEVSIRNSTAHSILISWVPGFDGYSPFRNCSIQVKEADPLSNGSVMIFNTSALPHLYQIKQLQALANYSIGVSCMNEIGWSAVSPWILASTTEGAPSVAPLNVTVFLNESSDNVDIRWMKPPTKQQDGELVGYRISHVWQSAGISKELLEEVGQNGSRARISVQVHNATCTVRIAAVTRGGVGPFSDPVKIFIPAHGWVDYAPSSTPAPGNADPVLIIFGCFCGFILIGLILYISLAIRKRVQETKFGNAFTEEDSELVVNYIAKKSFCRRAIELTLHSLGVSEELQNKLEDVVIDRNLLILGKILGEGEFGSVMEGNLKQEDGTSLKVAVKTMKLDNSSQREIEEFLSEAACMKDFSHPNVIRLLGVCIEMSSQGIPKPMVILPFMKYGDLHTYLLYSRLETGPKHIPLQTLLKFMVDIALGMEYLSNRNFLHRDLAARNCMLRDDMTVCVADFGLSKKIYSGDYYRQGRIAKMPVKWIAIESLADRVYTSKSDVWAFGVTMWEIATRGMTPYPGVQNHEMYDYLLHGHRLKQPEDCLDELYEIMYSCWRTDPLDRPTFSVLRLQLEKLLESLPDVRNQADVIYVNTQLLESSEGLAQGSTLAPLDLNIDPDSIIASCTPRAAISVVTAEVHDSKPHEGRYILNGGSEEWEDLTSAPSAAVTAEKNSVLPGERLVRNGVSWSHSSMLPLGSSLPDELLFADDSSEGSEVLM
Put plainly: TR-FRET kinase activity assay, MERTK. The format is biochemical. The conditions noted are these: for IC50: TR-FRET activity assay, ATP at Km, 60 minutes, read-out: Mer IC50; for FLT3/Mer ratio (FLT3 IC50/Mer IC50): ratio of Mer to FLT3: FLT3 IC50/Mer IC50. Summed up:
as §1
Background: TR-FRET usually uses a lanthanide donor and a delayed reading to cut background.

Turning to `COC[C@H](C)Nc1ncc2c(-c3cnn(Cc4ccnnc4)c3)cc([C@H]3CC[C@H](O)CC3)n2n1` [Compound 281], the IC50 against AXL and at MERTK was at most 100 nM in each case. Besides, at MERTK, the “FLT3/Mer ratio (FLT3 IC50/Mer IC50)” value is recorded as “+++ (“+++” represents a ratio of >100)”.

With `C[C@@H](CC(F)(F)F)Nc1ncc2c(-c3cnn([C@H]4CCOC4)c3)cc([C@H]3CC[C@H](O)CC3)n2n1` [Compound 290], the IC50 against AXL and on MERTK was at most 100 nM in each case. Further, the “FLT3/Mer ratio (FLT3 IC50/Mer IC50)” value at MERTK was “++ (“++” represents a ratio of between 10 and 100)”.

Regarding `COC[C@H](C)Nc1ncc2c(-c3cnn(C(C)(C)C(=O)N4CCC5(COC5)C4)c3)cc([C@H]3CC[C@H](O)CC3)n2n1` [Compound 318], the IC50 against AXL is at most 100 nM. At MERTK, the IC50 was at most 100 nM and the “FLT3/Mer ratio (FLT3 IC50/Mer IC50)” value is “+++ (“+++” represents a ratio of >100)”.

On AXL, `COC[C@H](C)Nc1ncc2c(-c3cnn(C(C)(C)C(=O)N4C[C@H]5CC[C@@H](C4)O5)c3)cc([C@H]3CC[C@H](O)CC3)n2n1` [Compound 327] gave an IC50 of at most 100 nM. Further, at MERTK, the IC50 was at most 100 nM and the “FLT3/Mer ratio (FLT3 IC50/Mer IC50)” value was “+++ (“+++” represents a ratio of >100)”.

On to `CCCCC[C@H](C)Nc1ncc2c(C3=CC[C@@H](C(=O)N4CCOCC4)CC3)cc([C@H]3CC[C@H](O)CC3)n2n1` [Compound 113], for which the IC50 on AXL and at MERTK was at most 100 nM each time. For the same compound, the “FLT3/Mer ratio (FLT3 IC50/Mer IC50)” value at MERTK was “++ (“++” represents a ratio of between 10 and 100)”.

On AXL, `CC[C@H](C)Nc1ncc2c(-c3ccc(CN4CCN(C)CC4)cc3)cc([C@H]3CC[C@H](O)CC3)n2n1` [Compound 118] came in with an IC50 of at most 100 nM. Also, on MERTK, the IC50 is at most 100 nM; the “FLT3/Mer ratio (FLT3 IC50/Mer IC50)” value was “++ (“++” represents a ratio of between 10 and 100)”.

On AXL, `CNS(=O)(=O)c1cncc(-c2cc([C@H]3CC[C@H](O)CC3)n3nc(N[C@@H](C)COC)ncc23)c1` [Compound 272] showed an IC50 of 100 to 1000 nM. At MERTK, the IC50 was at most 100 nM and the “FLT3/Mer ratio (FLT3 IC50/Mer IC50)” value is “+++ (“+++” represents a ratio of >100)”.

On to `COC[C@H](C)Nc1ncc2c(-c3cnn([C@@H]4CCNC4=O)c3)cc([C@H]3CC[C@H](O)CC3)n2n1` [Compound 315], for which the IC50 on AXL was at most 100 nM. In addition, at MERTK, the IC50 was at most 100 nM and the “FLT3/Mer ratio (FLT3 IC50/Mer IC50)” value was “+++ (“+++” represents a ratio of >100)”.

For the compound `COC[C@H](C)Nc1ncc2c(-c3cnn(C(C)(C)C(=O)C4C[C@H]5COC[C@H]5C4)c3)cc([C@H]3CC[C@H](O)CC3)n2n1` (stereo partly drawn) [Compound 319], the IC50 against AXL was at most 100 nM. For the same compound, at MERTK, the IC50 was at most 100 nM and the “FLT3/Mer ratio (FLT3 IC50/Mer IC50)” value was “+++ (“+++” represents a ratio of >100)”.

The compound `COC[C@H](C)Nc1ncc2c(-c3ccc(CN4CCOCC4)cc3)cc([C@H]3CC[C@H](NC(C)=O)CC3)n2n1` [Compound 300, N-((trans)-4-(2-(((S)-1-methoxypropan-2-yl)amino)-5-(4-(morpholinomethyl)phenyl)pyrrolo[2,1-f][1,2,4]triazin-7-yl)cyclohexyl)acetamide] gave an IC50 at AXL of at most 100 nM. Also, at MERTK, the IC50 was at most 100 nM and the “FLT3/Mer ratio (FLT3 IC50/Mer IC50)” value is given as “+++ (“+++” represents a ratio of >100)”.

For the compound `COC[C@H](C)Nc1ncc2c(-c3cnn(C(C)(C)C(=O)N4CCOCC4)c3)cc([C@H]3CC[C@H](O)CC3)n2n1` [Compound 282], at AXL, the IC50 was at most 100 nM. On MERTK, the half-inhibitory concentration (IC50) was at most 100 nM and the “FLT3/Mer ratio (FLT3 IC50/Mer IC50)” value was “+++ (“+++” represents a ratio of >100)”.

On AXL, `COC[C@H](C)Nc1ncc2c(-c3cnn(Cc4noc(C)n4)c3)cc([C@H]3CC[C@H](O)CC3)n2n1` [Compound 285] came in with an IC50 of at most 100 nM. For the same compound, on MERTK, the IC50 is at most 100 nM and the “FLT3/Mer ratio (FLT3 IC50/Mer IC50)” value is “+++ (“+++” represents a ratio of >100)”.

Take `CNC(=O)c1ccc(-c2cc([C@H]3CC[C@H](O)CC3)n3nc(N[C@@H](C)COC)ncc23)cn1` [Compound 317]: the IC50 on AXL is at most 100 nM. Moreover, at MERTK, the IC50 was at most 100 nM and the “FLT3/Mer ratio (FLT3 IC50/Mer IC50)” value is recorded as “+++ (“+++” represents a ratio of >100)”.

For orientation: IC50 means the midpoint of a concentration-inhibition curve.
